According to paper PMC6979384, “Characterization of the plant homeodomain (PHD) reader family for their histone tail interactions” (Epigenetics & Chromatin, 2020):
Where no end group is shown, it is not given here.

Legend:
Assay in all cases: Histone peptide microarray
Format in all cases: binding, human
Conditions in all cases: arrays performed twice
ING4 = tested on: ING4
How it was run: (§1)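 A peptide microarray holding 293 synthetic histone peptides with individual or combinatorial modifications was probed with each GST-PHD protein at 0.5 μM. Values represent mean intensity (±SD) from four replicates.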

PHF2 = tested on: PHF2
How it was run: as §1

KDM5A (3) = tested on: KDM5A (3)
How it was run: as §1

KDM7A = tested on: KDM7A
How it was run: as §1

PHF13 = tested on: PHF13
How it was run: as §1

PHRF1 (RP) = tested on: PHRF1 (RP)
How it was run: as §1

ING5 = tested on: ING5
How it was run: as §1

RAG2 = tested on: RAG2
How it was run: as §1

ING3 = tested on: ING3
How it was run: as §1

KDM5A (1) = tested on: KDM5A (1)
How it was run: as §1

CHD4 (PPCC) = tested on: CHD4 (PPCC)
How it was run: as §1

CHD5 (PPCC) = tested on: CHD5 (PPCC)
How it was run: as §1

CHD5 (PCC) = tested on: CHD5 (PCC)
How it was run: as §1

AIRE (PP) = tested on: AIRE (PP)
How it was run: as §1

BAZ2B = tested on: BAZ2B
How it was run: as §1

DIDO1 = tested on: DIDO1
How it was run: as §1

PHF8 = tested on: PHF8
How it was run: as §1

PHF21A = tested on: PHF21A
How it was run: as §1

BPTF (PB) = tested on: BPTF (PB)
How it was run: as §1

ING2 = tested on: ING2
How it was run: as §1

TRIM66 (PB) = tested on: TRIM66 (PB)
How it was run: as §1

KDM5B (1) = tested on: KDM5B (1)
How it was run: as §1

MORC3 (CW) = tested on: MORC3 (CW)
How it was run: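 GST-tagged PHD readers, 0.5 μM, probed on a microarray of 293 synthetic histone peptides carrying single or combinatorial PTMs (optimized Petell protocol). Signals are averaged over 4 replicates and expressed as relative binding.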

KDM4C (TTP) = tested on: KDM4C (TTP)
How it was run: as §1

KDM5B (3) = tested on: KDM5B (3)
How it was run: as §1

ING1 = tested on: ING1
How it was run: as §1

MLL5 = tested on: MLL5
How it was run: as §1

DPF2 (PPC2W2) = tested on: DPF2 (PPC2W2)
How it was run: as §1

SP140L = tested on: SP140L
How it was run: as §1

PHF23 = tested on: PHF23
How it was run: as §1

TAF3 = tested on: TAF3
How it was run: as §1

H3K36me3 (21-44): H3 21-44
Array Heatmap value (peptide array binding signal) (ING4; ING4, GST-tagged, n of 4): 0.4583
Array Heatmap value (peptide array binding signal) (PHF2; PHF2, GST-tagged, n of 4): 0.5258
Array Heatmap value (peptide array binding signal) (KDM5A (3); KDM5A (3), GST-tagged, n of 4): 0.4295
Array Heatmap value (peptide array binding signal) (KDM7A; KDM7A, GST-tagged, n of 4): 0.3622
Array Heatmap value (peptide array binding signal) (PHF13; PHF13, GST-tagged, n of 4): 0.6462
Array Heatmap value (peptide array binding signal) (PHRF1 (RP); PHRF1 (RP), GST-tagged, n of 4): 0.4375
Array Heatmap value (peptide array binding signal) (ING5; ING5, GST-tagged, n of 4): 0.3678
Array Heatmap value (peptide array binding signal) (RAG2; RAG2, GST-tagged, n of 4): 0.2418
Array Heatmap value (peptide array binding signal) (ING3; ING3, GST-tagged, n of 4): 0.4991
Array Heatmap value (peptide array binding signal) (KDM5A (1); KDM5A (1), GST-tagged, n of 4): 0.4698
Array Heatmap value (peptide array binding signal) (CHD4 (PPCC); CHD4 (PPCC), GST-tagged, n of 4): 0.5871
Array Heatmap value (peptide array binding signal) (CHD5 (PPCC); CHD5 (PPCC), GST-tagged, n of 4): 0.5621
Array Heatmap value (peptide array binding signal) (CHD5 (PCC); CHD5 (PCC), GST-tagged, n of 4): 0.7751
Array Heatmap value (peptide array binding signal) (AIRE (PP); AIRE (PP), GST-tagged, n of 4): 0.4385
Array Heatmap value (peptide array binding signal) (BAZ2B; BAZ2B, GST-tagged, n of 4): 0.4726
Array Heatmap value (peptide array binding signal) (DIDO1; DIDO1, GST-tagged, n of 4): 0.7273
Array Heatmap value (peptide array binding signal) (PHF8; PHF8, GST-tagged, n of 4): 0.3546
Array Heatmap value (peptide array binding signal) (PHF21A; PHF21A, GST-tagged, n of 4): 0.4681
Array Heatmap value (peptide array binding signal) (BPTF (PB); BPTF (PB), GST-tagged, n of 4): 0.352
Array Heatmap value (peptide array binding signal) (ING2; ING2, GST-tagged, n of 4): 0.6072
Array Heatmap value (peptide array binding signal) (TRIM66 (PB); TRIM66 (PB), GST-tagged, n of 4): 0.6062
Array Heatmap value (peptide array binding signal) (KDM5B (1); KDM5B (1), GST-tagged, n of 4): 0.6524
Array Heatmap value (peptide array binding signal) (MORC3 (CW); MORC3 (CW), GST-tagged, n of 4): 0.351
Array Heatmap value (peptide array binding signal) (KDM4C (TTP); KDM4C (TTP), GST-tagged, n of 4): 0.4879
Array Heatmap value (peptide array binding signal) (KDM5B (3); KDM5B (3), GST-tagged, n of 4): 0.4778
Array Heatmap value (peptide array binding signal) (ING1; ING1, GST-tagged, n of 4): 0.5613
Array Heatmap value (peptide array binding signal) (MLL5; MLL5, GST-tagged, n of 4): 0.5803
Array Heatmap value (peptide array binding signal) (DPF2 (PPC2W2); DPF2 (PPC2W2), GST-tagged, n of 4): 0.6719
Array Heatmap value (peptide array binding signal) (SP140L; SP140L, GST-tagged, n of 4): 0.3526
Array Heatmap value (peptide array binding signal) (PHF23; PHF23, GST-tagged, n of 4): 0.5628
Array Heatmap value (peptide array binding signal) (TAF3; TAF3, GST-tagged, n of 4): 0.2673

H3K56ac (52-61): H3 52-61 (RRYQK(Ac)STELL; UniProt P68431 53-62, looked up, fragment)
Array Heatmap signal, ING4 (ING4; sheet "Array Heatmap", GST-tagged ING4, total replicate number n = 4): 0.4689
Array Heatmap signal, PHF2 (PHF2; sheet "Array Heatmap", GST-tagged PHF2, total replicate number n = 4): 0.5355
Array Heatmap signal, KDM5A (3) (KDM5A (3); sheet "Array Heatmap", GST-tagged KDM5A (3), total replicate number n = 4): 0.4545
Array Heatmap signal, KDM7A (KDM7A; sheet "Array Heatmap", GST-tagged KDM7A, total replicate number n = 4): 0.3406
Array Heatmap signal, PHF13 (PHF13; sheet "Array Heatmap", GST-tagged PHF13, total replicate number n = 4): 0.6129
Array Heatmap signal, PHRF1 (RP) (PHRF1 (RP); sheet "Array Heatmap", GST-tagged PHRF1 (RP), total replicate number n = 4): 0.4575
Array Heatmap signal, ING5 (ING5; sheet "Array Heatmap", GST-tagged ING5, total replicate number n = 4): 0.365
Array Heatmap signal, RAG2 (RAG2; sheet "Array Heatmap", GST-tagged RAG2, total replicate number n = 4): 0.2388
Array Heatmap signal, ING3 (ING3; sheet "Array Heatmap", GST-tagged ING3, total replicate number n = 4): 0.475
Array Heatmap signal, KDM5A (1) (KDM5A (1); sheet "Array Heatmap", GST-tagged KDM5A (1), total replicate number n = 4): 0.4791
Array Heatmap signal, CHD4 (PPCC) (CHD4 (PPCC); sheet "Array Heatmap", GST-tagged CHD4 (PPCC), total replicate number n = 4): 0.5636
Array Heatmap signal, CHD5 (PPCC) (CHD5 (PPCC); sheet "Array Heatmap", GST-tagged CHD5 (PPCC), total replicate number n = 4): 0.5505
Array Heatmap signal, CHD5 (PCC) (CHD5 (PCC); sheet "Array Heatmap", GST-tagged CHD5 (PCC), total replicate number n = 4): 0.7293
Array Heatmap signal, AIRE (PP) (AIRE (PP); sheet "Array Heatmap", GST-tagged AIRE (PP), total replicate number n = 4): 0.4476
Array Heatmap signal, BAZ2B (BAZ2B; sheet "Array Heatmap", GST-tagged BAZ2B, total replicate number n = 4): 0.4578
Array Heatmap signal, DIDO1 (DIDO1; sheet "Array Heatmap", GST-tagged DIDO1, total replicate number n = 4): 0.7019
Array Heatmap signal, PHF8 (PHF8; sheet "Array Heatmap", GST-tagged PHF8, total replicate number n = 4): 0.3512
Array Heatmap signal, PHF21A (PHF21A; sheet "Array Heatmap", GST-tagged PHF21A, total replicate number n = 4): 0.4604
Array Heatmap signal, BPTF (PB) (BPTF (PB); sheet "Array Heatmap", GST-tagged BPTF (PB), total replicate number n = 4): 0.3515
Array Heatmap signal, ING2 (ING2; sheet "Array Heatmap", GST-tagged ING2, total replicate number n = 4): 0.6013
Array Heatmap signal, TRIM66 (PB) (TRIM66 (PB); sheet "Array Heatmap", GST-tagged TRIM66 (PB), total replicate number n = 4): 0.5346
Array Heatmap signal, KDM5B (1) (KDM5B (1); sheet "Array Heatmap", GST-tagged KDM5B (1), total replicate number n = 4): 0.5943
Array Heatmap signal, MORC3 (CW) (MORC3 (CW); sheet "Array Heatmap", GST-tagged MORC3 (CW), total replicate number n = 4): 0.3491
Array Heatmap signal, KDM4C (TTP) (KDM4C (TTP); sheet "Array Heatmap", GST-tagged KDM4C (TTP), total replicate number n = 4): 0.4844
Array Heatmap signal, KDM5B (3) (KDM5B (3); sheet "Array Heatmap", GST-tagged KDM5B (3), total replicate number n = 4): 0.4628
Array Heatmap signal, ING1 (ING1; sheet "Array Heatmap", GST-tagged ING1, total replicate number n = 4): 0.5577
Array Heatmap signal, MLL5 (MLL5; sheet "Array Heatmap", GST-tagged MLL5, total replicate number n = 4): 0.5378
Array Heatmap signal, DPF2 (PPC2W2) (DPF2 (PPC2W2); sheet "Array Heatmap", GST-tagged DPF2 (PPC2W2), total replicate number n = 4): 0.7093
Array Heatmap signal, SP140L (SP140L; sheet "Array Heatmap", GST-tagged SP140L, total replicate number n = 4): 0.3649
Array Heatmap signal, PHF23 (PHF23; sheet "Array Heatmap", GST-tagged PHF23, total replicate number n = 4): 0.5106
Array Heatmap signal, TAF3 (TAF3; sheet "Array Heatmap", GST-tagged TAF3, total replicate number n = 4): 0.2638
